Patent US20260174780A1, “BISMUTH-THIOL COMPOSITIONS AND METHODS FOR TREATING INFLAMMATORY DISEASES” (Microbion Corporation, priority 2022, published 2026)

What was measured:
[1] = system: M. abscessus strain 19977; test: Chronic M. abscessus lung infection in SCID mice, inhaled treatment, lung CFU; assay type: in vivo, SCID/Beige mice
Method: In vivo studies were conducted in mice to separately model chronic M. abscessus infection. The animals were treated for 28 days and grouped according to dosage: vehicle, low dose BisEDT, high dose BisEDT, and amikacin. At the end of treatment, blood, lungs were collected for analysis. […] Histopathology was conducted on lung samples from the in vivo studies.
A total of sixty female SCID/Beige mice between 6-8 weeks of age were used. Mice were placed up to 4 animals per cage and allowed 1 week of acclimation prior to infection.
Inoculums of M. abscessus strain 19977 (MAB) used in this study were made from highly virulent frozen stocks with low passage numbers. Bacteria were allowed to grow to log phase after 4 days on 7H10 media agar plates at 37° C. Once confluent, inoculums were made by suspending bacteria at 10^9 in Hank's balanced salt solution (HBSS) as determined by optical density (O.D.) and further quantified by serial dilution to determine the CFU/mL of suspension. At this higher concentration of bacteria, only 20 μL of inoculum was necessary to deposit […] bacteria per mouse.
On the day of infection mice were anesthetized with isoflurane by the drop jar method. Mice were scruffed in a standard one-handed grip and the nose of the mouse is held of a tube containing gauze containing a small amount of isoflurane. Mice were monitored for breathing and once rapid breaths have slowed down initially the mouse is removed from direct anesthesia and 20 μL of bacterial suspension was deposited on the left nostril. The mice then slowly breath in the droplet. Each mouse was then held in hand until complete consciousness was obtained and then the mouse was replaced into its home cage. After infection was initiated, 3 weeks were allowed to pass in order to allow the bacteria to establish a chronic lung pathology for eventual treatment.
After establishing each infection, 12 mice were euthanized the day before treatment began to determine the baseline bacterial load. Mice were euthanized using CO2 in accordance with the recommendations of the Guide for the Care and Use of Laboratory Animals (NRC 2011). Lungs were collected and homogenized then serial diluted for CFU enumeration.
A nose-only inhalation exposure chamber from CH technologies was used for this experiment. Mice were split into four treatment groups, Vehicle (buffer containing no BisEDT), amikacin (100 μg/kg/day), BisEDT “low” (200 μg/kg/day), and BisEDT “high” (1000 μg/kg/day). Each treatment group consisted of 12 mice. […]
After 28 days of treatment with BisEDT, animals were euthanized by CO2 and secondary cardiac puncture to collect whole blood for quantitation of BisEDT concentration. […] CFUs were determined after serial dilution. […]

[2] = system: cytokines in bronchoalveolar lavage fluid (BALF); test: Cytokines in BALF of rats after a single inhaled dose of BisEDT; assay type: in vivo, Sprague-Dawley rats; settings: day 8 compared to day 2; single low (1 mg/kg) or high (7 mg/kg) inhaled dose
Method: Two concentrations (low: 1 mg/kg; high: 7 mg/kg) of BisEDT were evaluated by inhalation in rats.
Bronchoalveolar lavage fluid (BALF) samples from day 2 (D2) and day 8 (D8) post treatment were analyzed for the expression of cytokines.
Protocol: Sprague-Dawley rats were randomly assigned to a study group based on body weight. Adult, male Sprague-Dawley rats (n=6 per group) were exposed to the aerosolized test article (TA) with a single dose on Study Day 1. Groups 1, 2, and 3 were exposed by inhalation to 1 mg/kg (targeted presented dose) of BisEDT sample 1, BisEDT sample 2, or BisEDT sample 3, respectively. Groups 4, 5, and 6 were exposed by inhalation to 7 mg/kg (targeted presented dose) of BisEDT sample 1, BisEDT sample 2, or BisEDT sample 3, respectively. Animals were necropsied on Study Days 2, 4, and 8, and terminal blood collections were conducted at that time.
Blood Processing: All blood samples were placed into a tube containing K3EDTA, and mixed thoroughly. Following mixing, blood obtained at the time of euthanasia was divided in half. Half of the blood sample was stored frozen without further processing pending bioanalysis. The remaining half was placed on wet ice before being processed to plasma by centrifugation at 2500×g for ≥10 minutes at 2 to 8° C. Plasma was aliquoted into a cryovial(s), snap frozen in liquid nitrogen, and stored at −80° C.±10° C. until cytokine analysis was performed using ELISA kits following manufacturer's instructions.

AIM2 inflammasome = test: qPCR of AIM2 in BEAS-2B cells; assay type: cell-based, human; settings: 0.5-4 μg/mL, 24 hours
Method: Protocol: BEAS-2B cells were grown in tissue culture flasks and a 24-well plate was seeded with 2×10^5 cells/well and incubated at 37° C. and 5% CO2 for 48 hours. Select wells were treated with either 4 μg/mL, 2 μg/mL, 1 μg/mL, or 0.5 μg/mL BisEDT or left untreated as a control and incubated at 37° C. and 5% CO2 for 24 hours. Cell culture supernatant was collected from each well and stored at −20° C. until further ELISA analysis. On the day of the ELISA assays to determine the expression of each cytokine, cell culture supernatant was thawed, and the assays performed following the manufacturer's instructions. Cells were collected for RNA isolation using Qiagen RNeasy kit using manufacturers' instructions. Briefly, genomic DNA was degraded with DNase (Roche) and samples were incubated at 37° C. for 1 hour followed by 3 μL DNase inactivation reagent (Invitrogen) incubated at 37° C. for 2 minutes. Samples were centrifuged at maximum speed for 5 minutes to remove the inactivation reagent. RNA concentration and quality was evaluated using a Nanodrop. RNA samples were utilized to generate cDNA using cDNA synthesis kit (Bio-Rad). qPCR for AIM2 and actin (housekeeping gene) was conducted using SYBR green kit (Bio-Rad) along with standards.

## C1C[S][Bi]([S]CC[S][Bi]2[S]CC[S]2)[S]1 [BisEDT, 1,2-(Bis(1,3-dithia-2-bismolane)thio)ethane]
[1]; 200 μg/kg (low)
  CFU count in lung homogenates: bacteriostatic effect
[1]; 1000 μg/kg (high) delivered to the lungs
  CFU count in lung homogenates: bactericidal
[1]; 1000 μg/kg/day, p-value=0.0163
  lung CFU, high-dose group vs vehicle control: statistically significant difference
[1]; inhaled 200 and 1000 μg/kg/day, 28 days, Kruskal-Wallis test
  lung CFU: dose-dependent response
[2]
  expression of IL-1β in BALF: Consistent reduction
  expression of IL-17A in BALF: Consistent reduction
  expression of TNF-α in BALF: Consistent reduction
AIM2 inflammasome
  AIM2 inflammasome expression (AIM2/Actin copy number): inhibit AIM2 inflammasome expression
